Test results: patent publication US20240252456A1, “ORAL COMPOSITION, SKIN COSMETIC AND HAIR COSMETIC” (MARUZEN PHARMACEUTICALS CO., LTD., priority 2021, published 2024)

Columns and labels:
[1] = system: Normal human neonatal epidermal keratinocytes (NHEK); assay: ATP production promotive action test (epidermal keratinocytes); assay type: cell-based; details: 2 hours
Experimental: Normal human neonatal epidermal keratinocytes (NHEK) were cultured using normal human epidermal keratinocyte growth medium (KGM), and then the cells were collected by a trypsin treatment. The collected cells were diluted with KGM to a cell density of 2.0×10^5 cells/mL, then seeded with 100 μL per well on a collagen-coated 96-well plate, and cultured overnight. After the culturing was completed, the medium was removed, and 100 μL of KGM to which each of test samples (Samples 1 and 2, see Table 13 below for final concentrations) was added was added to each well, and culturing was performed for 2 hours. As a control, culturing was performed in the same manner using KGM to which no sample was added.
The ATP production promotive action was determined by measuring the amount of ATP in cells using the firefly luciferase luminescence method. […] After the reaction, the amount of chemiluminescence proportional to the amount of intracellular ATP was measured using a chemiluminescence measurement device (available from Thermo Fisher Scientific, product name: Varioskan LUX multimode microplate reader). From the obtained results, the ATP production promotion rate (%) was calculated using the following equation. […]

[2] = system: Normal human liver cells (hepatocytes); assay: Glutathione production promotive action test (hepatocytes); assay type: cell-based; details: 24 hours
Experimental: Normal human liver cells (hepatocytes) were cultured using Dulbecco's modified Eagle's medium (DMEM) containing 10% FBS, and then the cells were collected by a trypsin treatment. The collected cells were diluted with DMEM containing 10% FBS to a cell density of 10×10^4 cells/mL, then seeded with 200 μL per well in a 48-well plate, and cultured overnight.
After culturing, the medium was removed, 200 μL of each of test samples (Samples 1 to 3, see Table 30 below for final concentrations) dissolved in DMEM containing 1% FBS was added to each well, and culturing was further performed for 24 hours. As a control, culturing was performed in the same manner using DMEM containing 1% FBS to which no sample was added. After the culturing was completed, the medium was removed from each well, and the cells were washed with 400 μL of PBS(−) and then lysed using 150 μL of M-PER (available from PIERCE).
Quantitative determination of total glutathione was performed using 100 μL of the lysed cells. That is, 100 μL of lysed cell extract, 50 μL of 0.1 mol/L phosphate buffer solution, 25 μL of 2 mmol/L NADPH, and 25 μL of 3.2 unit/mL glutathione reductase were added to a 96-well plate and heated at 37° C. for 10 minutes, then 25 μL of 10 mmol/L 5,5′-dithiobis(2-nitrobenzoic acid) was added, and the absorbance at a wavelength of 412 nm was measured until 5 minutes later to determine ΔOD/min. The total glutathione concentration was calculated based on a calibration curve created using oxidized glutathione (available from FUJIFILM Wako Pure Chemical Corporation). After correcting the obtained value to the glutathione value per total protein amount, the glutathione production promotion rate (%) was calculated based on the following equation.
Terms in the equation represent the following respective ones. • A: Glutathione amount per total protein amount without sample addition • B: Glutathione amount per total protein amount with test sample addition

[3] = target: T1, hyaluronidase (Type IV-S) (Bos taurus, UniProt Q2YDK3); assay: Hyaluronidase activity inhibitory action test; assay type: biochemical, bovine; details: read-out: Hyaluronidase activity inhibition rate; for inhibition at 250 µM: 250 μmol/L; for inhibition at 1000 µM: 1000 μmol/L
T1 construct: purchased SIGMA Type IV-S; host or cells: bovine testes
T1 sequence (Q2YDK3 36-553): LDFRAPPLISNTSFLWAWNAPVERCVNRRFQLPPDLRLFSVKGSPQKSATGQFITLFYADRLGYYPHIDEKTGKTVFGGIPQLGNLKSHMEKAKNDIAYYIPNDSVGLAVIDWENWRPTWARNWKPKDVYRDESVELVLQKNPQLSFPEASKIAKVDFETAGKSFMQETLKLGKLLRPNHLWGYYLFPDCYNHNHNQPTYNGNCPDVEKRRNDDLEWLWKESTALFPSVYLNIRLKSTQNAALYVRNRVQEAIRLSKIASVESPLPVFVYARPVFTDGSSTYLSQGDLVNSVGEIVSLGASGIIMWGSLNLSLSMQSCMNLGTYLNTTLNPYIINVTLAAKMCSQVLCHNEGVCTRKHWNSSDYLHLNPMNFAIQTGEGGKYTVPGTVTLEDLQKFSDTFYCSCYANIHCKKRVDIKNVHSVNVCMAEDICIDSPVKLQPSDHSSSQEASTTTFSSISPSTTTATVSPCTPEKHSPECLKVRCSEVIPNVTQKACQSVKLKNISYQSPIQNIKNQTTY
Experimental: To 0.2 mL of each of test samples (Samples 1 to 3, see Table 27 below for final concentrations) dissolved in 0.1 mol/L acetate buffer solution (pH 3.5), 0.1 mL of hyaluronidase solution (available from SIGMA, Type IV-S, from bovine tests, 400 NF units/mL) was added, and the mixture was statically placed at 37° C. for 20 minutes. Furthermore, 0.2 mL of 2.5 mmol/L calcium chloride was added as an activator, and the mixture was statically placed at 37° C. for 20 minutes. To this was added 0.5 mL of 0.8 mg/mL sodium hyaluronate solution (from rooster comb), and the mixture was reacted at 37° C. for 40 minutes. After that, 0.2 mL of 0.4 mol/L sodium hydroxide was added to stop the reaction, it was cooled, and then 0.2 mL of boric acid solution was added to each reaction solution, which was boiled for 3 minutes. After cooling on ice, 6 mL of p-DABA reagent was added and reacted at 37° C. for 20 minutes. After that, the absorbance at a wavelength of 585 nm was measured.
In addition, as a blank, the same operation and absorbance measurement were performed in the case in which no enzyme solution was added. Furthermore, as a control, the same measurement was performed in the case in which distilled water was added without adding the sample solution. From the obtained results, the hyaluronidase activity inhibition rate (%) was calculated using the following equation.
Terms in the equation represent the following respective ones. • A: Absorbance at wavelength 585 nm with test sample addition and with enzyme addition • B: Absorbance at wavelength 585 nm with test sample addition and without enzyme addition • C: Absorbance at wavelength 585 nm without sample addition and with enzyme addition • D: Absorbance at wavelength 585 nm without sample addition and without enzyme addition

Row | SMILES | ATP production promotion rate ([1]; 6.25 μmol/L) | Glutathione production promotion rate ([2]; 31.2 μmol/L) | Glutathione production promotion rate ([2]; 125 μmol/L) | Glutathione production promotion rate ([2]; 500 μmol/L) | inhibition at 250 µM [3] | inhibition at 1000 µM [3] | ATP production promotion rate ([1]; 25 μmol/L) | inhibition at 62.5 µM ([3]; 62.5 μmol/L)
1 | O=C(O)CCc1ccc(O)c(O)c1 [Sample 1, 3,4-Dihydroxyhydrocinnamic acid] | 106.7% | 123.9% | 124.8% | 113.4% | 4.9% | 19.9% | – | –
2 | O=C(O)CCc1ccc(O)cc1 [Sample 2, 3-(4-Hydroxyphenyl)propionic acid] | – | 119.2% | 118.1% | – | – | 15.8% | 112.4% | –
3 | O=C(O)CCc1ccccc1 [Sample 3, 3-phenylpropionic acid] | – | 133.9% | 124.6% | 119.2% | 20.2% | 41.1% | – | 16.5%
